# Data: patent publication US11524021B2, “Use of ginsenoside M1 for manufacturing medicament for treating oral cancer” (priority 2018, dated 2022)
# Tests used:
# Format in all cases: cell-based
# [1] = test system: human oral cancer SAS cells; experiment: Migration of SAS cells, wound healing assay; conditions: 24 h
# Method: (§1) FIGS. 5A-5B show ginsenoside M1 reduced the migration ability of human oral cancer cells. Human oral cancer cell line SAS cells (FIG. 5A) or OECM-1 cells (FIG. 5B) were cultured in 6-cm dish until the cells reached 100% confluence forming a monolayer. A clear zone was created by scratching using a sterile 200-μl pipette tip. The cells were incubated for 24 h (SAS cells) or 18 h (OECM-1 cells) with ginsenoside M1 (5˜10 μg/ml) or (0.1% DMSO). The migration distance was measured and compared to the vehicle-control cells. The data were expressed as mean±SD; n=3. *** indicates a significant difference at the level of p<0.001, compared to vehicle-control cells. (One-way ANOVA with Dunnett's multiple comparisons test).
# (§2) The cell migration ability was measured by wound healing assay. Plate 5×10^6 human oral cancer SAS cells or OECM-1 cells per 6-cm dish in 2 ml of culture medium and were grown overnight at 37° C. in a 5% CO2 incubator until the cells reached 100% confluence forming a monolayer. We used a sterile 200-μl pipette tip to create a scratched clear zone on the culture dish, and the wounds photographed by a phase contrast microscope as the baseline. […] The data were expressed as mean±SD; n=3. *** indicates a significant difference at the level of p<0.001, compared to vehicle-control cells. […]
# [2] = test system: human oral cancer cells OECM-1; experiment: Cell cycle distribution, PI staining by flow cytometry; conditions: 10˜20 μg/ml, 24 h
# Method: Human oral cancer cell line OECM-1 cells were incubated for 24 h with ginsenoside M1 (10˜20 μg/ml), 50 μM cistaplatin (CDDP) or vehicle (0.1% DMSO). (FIG. 3A) The apoptotic DNA breaks was assayed by terminal deoxynucleotidyl transferase dUTP nick end labeling (TUNEL) assay using flow cytometry. (FIG. 3B) The cell cycle distribution was determined by PI staining using flow cytometry. (FIG. 3C) The apoptosis level was measured by PI/Annexin V double staining assay using flow cytometry. (FIG. 3D) The activation levels of caspase-9 and caspase-3 were measured by detecting the degradation of pro-caspase-9 and pro-caspase-3 using Western blotting. […] (One-way ANOVA with Dunnett's multiple comparisons test).
# To gain further insight into the mode of action of ginsenoside M1, three assays targeting hallmarks of apoptosis, namely (1) the apoptotic DNA breaks assayed by terminal deoxynucleotidyl transferase dUTP nick end labeling (TUNEL) assay, (2) the cell cycle assayed by flow cytometry after propidium iodide (PI)-staining nuclei, (3) the PI/Annexin V double staining assay, and (4) caspase activation were performed. Plate 1×10^6 human oral cancer cells OECM-1 per 6-cm dish in 2 ml of culture medium and were grown overnight at 37° C. in a 5% CO2 incubator. The cells were incubated for 24 h with ginsenoside M1 (10˜20 μg/ml), 50 μM cistaplatin (CDDP) or vehicle. Each group contains a final DMSO concentration of 0.1%. Thereafter, three assays were performed. […] The cells in sub-G1 phase increased after treatment with ginsenoside M1 and CDDP. (FIG. 3B). […] The data were expressed as mean±SD; n=3. ** and *** indicate a significant difference at the level of p<0.01 and p<0.001, respectively, compared to vehicle-control cells. (One-way ANOVA with Dunnett's multiple comparisons test).
# [3] = test system: human oral cancer cells SAS; experiment: Colony formation of SAS cells; conditions: 5˜20 μg/ml, 10 days
# Method: FIGS. 4A-4B show ginsenoside M1 reduced the colony formation ability of human oral cancer cells. Human oral cancer cell line SAS cells (FIG. 4A) or OECM-1 cells (FIG. 4B) were incubated for 10 days with ginsenoside M1 (5˜20 μg/ml) or vehicle (0.1% DMSO). The cells were fixed in 4% ice-cold paraformaldehyde and stained with 0.1% crystal violet, and the colonies were counted. The data were expressed as mean±SD; n=4. * and *** indicate a significant difference at the level of p<0.05 and p<0.001, respectively, compared to vehicle-control cells. (One-way ANOVA with Dunnett's multiple comparisons test).
# Plate 150 human oral cancer cells SAS or OECM-1 per 6-cm dish in 3 ml of culture medium and were grown overnight at 37° C. in a 5% CO2 incubator. The cells were incubated for 10 days with ginsenoside M1 (5˜20 μg/ml) or vehicle. The cells were changed for fresh medium containing the same concentration of ginsenoside M1 at day 5. The cells were fixed in 4% ice-cold paraformaldehyde for 15 min at […], and stained with 0.1% crystal violet 10 min at room temperature. […] The data were expressed as mean±SD; n=4. * and *** indicate a significant difference at the level of p<0.05 and p<0.001, respectively, compared to vehicle-control cells. (One-way ANOVA with Dunnett's multiple comparisons test).
# [4] = test system: human oral cancer OECM-1 cells; experiment: Migration of OECM-1 cells, wound healing assay; conditions: 18 h
# Method: as §1, §2
compound,measurement,setting,value
"CC(C)=CCC[C@](C)(O[C@@H]1OC(CO)[C@@H](O)[C@@H](O)C1O)[C@H]1CC[C@]2(C)C1[C@H](O)CC1[C@@]3(C)CC[C@H](O)C(C)(C)C3CC[C@]12C (stereo partly drawn) [ginsenoside M1, 20-O-β-D-glucopyranosyl-20(S)-protopanaxadiol]",migration ability of SAS cells,[1]; 5 μg/ml,significantly inhibited
same,migration ability of SAS cells,[1]; 10 μg/ml,significantly inhibited
same,cells in sub-G1 phase,[2],increased
same,cells in G1 phase,[2]; vs control cells,increased in a concentration-dependent manner
same,percentage of cells in S and G2/M phase,[2]; vs control cells,decreasing
same,colony formation ability of SAS cells,[3],dose-dependently inhibited
same,migration ability of OECM-1 cells,[4]; 5 μg/ml,significantly inhibited
same,migration ability of OECM-1 cells,[4]; 10 μg/ml,significantly inhibited
